Reference: patent US9133207B2, “Tetrandrine derivatives with substituted 5-carbon, preparation method and use thereof” (Hangzhou Bensheng Pharmaceutical Co., Ltd., priority 2011, dated 2015)
In brackets after ≈: the same amount, converted by molar mass.

Legend:
[1] = system: H9 (acute lymphoblastic leukemia, ALL); experiment: Leukemia cell growth inhibition, MTT, 72 h (Example 5); format: cell-based, human; details: Homo sapiens; 72 h, MTT
Excerpt: (§1) Leukemia cell lines: leukemia cell lines: K562/adr (drug-resistant, chronic myeloid leukemia, CML), NB4 (acute promyelocytic leukemia, AML), Kasumi-1 (acute myeloid leukemia M2 type, AML-M2), Jurkat (acute lymphoblastic leukemia, ALL), all of which are donated by Cancer Research Institute of Zhejiang University, China; and H9 (acute lymphoblastic leukemia, ALL), which is purchased from China Center for Type Culture Collection.
(§2) Reagents: The standard sample of tetrandrine (TTD) is purchased from Ci Yuan Biotechnology Co., Ltd., Shaanxi, China; and the 5-substituted tetrandrine derivatives of the present invention.
(§3) Obtaining 6000 well-growing leukemia cells and inoculating them into wells of a 96-well cell culture plate. The culture medium is a 1640 cell culture medium containing 10% fetal bovine serum. After adding the tetrandrine derivatives of different concentrations and mixing uniformly, placing the plate in a carbon dioxide cell incubator (5% CO2) at 37° C. and incubating for 72 hours. Then the viable cell concentration is determined by the MTT method.

[2] = system: Jurkat (acute lymphoblastic leukemia, ALL); experiment: as above; format: cell-based, human; details: Homo sapiens, Jurkat; 72 h, MTT
Excerpt: as §1, §2, §3

[3] = system: K562/adr (drug-resistant, chronic myeloid leukemia, CML); experiment: as above; format: cell-based, human; details: Homo sapiens, K562/Adr; 72 h, MTT
Excerpt: as §1, §2, §3

[4] = system: Kasumi-1 (acute myeloid leukemia M2 type, AML-M2); experiment: as above; format: cell-based, human; details: Homo sapiens, Kasumi 1
Excerpt: as §1, §2, §3

[5] = system: NB4 (acute promyelocytic leukemia, AML); experiment: as above; format: cell-based, human; details: Homo sapiens; 72 h, MTT
Excerpt: as §1, §2, §3

[6] = system: RPMI8226 (multiple myeloma); experiment: Multiple myeloma cell growth inhibition, MTT, 72 h (Example 6); format: cell-based, human; details: Homo sapiens, RPMI-8226; 72 h, MTT, RPMI8226
Experimental: Multiple myeloma and lymphoma cell lines: RPMI8226 (multiple myeloma), purchased from Fuxiang Bio-tech Co. Ltd., Shanghai, China.
(§4) Reagents: the same as in Example 5.
as §3, with “incubated” for “incubating”

[7] = system: CaES-17 (esophageal cancer cell); experiment: Solid tumor cell growth inhibition, MTT, 72 h (Example 7); format: cell-based, human; details: Homo sapiens, CaEs17; 72 h, MTT, CAES-17
Experimental: (§5) Human solid tumor cell lines: Hep-2 (laryngeal carcinoma), A549 (human lung cancer), CaES-17 (esophageal cancer cell), PC-3 (prostate cancer), CNE (nasopharyngeal carcinoma cell) and SK-OV-3 (ovarian cancer cell), all of which are purchased from China Center For Type Culture Collection; RKO (human colon adenocarcinoma cell), MGC 803 (human gastric cancer cell), MG63 (osteosarcoma), and U87 MG (malignant glioma cell), all of which are purchased from Fuxiang Bio-tech Co. Ltd., Shanghai, China; PANC-1 (pancreatic cancer), Huh? (human liver cancer cell), Becap37 (human breast cancer cell), and Hela (human cervical cancer cell), all of which are donated by Cancer Research Institute of Zhejiang University, China.
as §4
(§6) Obtaining 4000 well-growing human solid tumor cells and inoculating them into wells of a 96-well cell culture plate. The culture medium is DMEM High Glucose cell culture medium containing 10% fetal bovine serum. The plate is placed in a carbon dioxide cell incubator (5% CO2) at 37° C. and incubated for 24 hours. After been added with tetrandrine derivatives of different concentration and mixing uniformly, the plate is placed in a carbon dioxide cell incubator (5% CO2) at 37° C. and incubated for 72 hours. Then the viable cell concentration is determined by the MTT method and the cell viability (%) after drug treatment is calculated. In this experiment, the cell viability of control group (not treated with any compound) is set as 100%.

[8] = system: MG63 (osteosarcoma); experiment: as above; format: cell-based, human; details: Homo sapiens; 72 h, MTT, MG-63
Experimental: as §5, §4, §6

[9] = system: PANC-1 (pancreatic cancer); experiment: as above; format: cell-based, human; details: Homo sapiens; 72 h, MTT, PANC-1
Experimental: as §5, §4, §6

[10] = system: PC-3 (prostate cancer); experiment: as above; format: cell-based, human; details: for IC50 / IC90: Homo sapiens, 72 h, MTT, PC-3
Experimental: as §5, §4, §6

[11] = system: A549 (human lung cancer); experiment: as above; format: cell-based; details: for IC50 / IC90: Homo sapiens, 72 h, MTT, A549
Experimental: as §5, §4, §6

[12] = system: Becap37 (human breast cancer cell); experiment: as above; format: cell-based; details: Homo sapiens; 72 h, MTT, Becap-37
Experimental: as §5, §4, §6

[13] = system: Huh7 (human liver cancer cell); experiment: as above; format: cell-based; details: Homo sapiens; 72 h, MTT, Huh-7
Experimental: as §5, §4, §6

[14] = system: MGC 803 (human gastric cancer cell); experiment: as above; format: cell-based; details: Homo sapiens
Experimental: as §5, §4, §6

[15] = system: RKO (human colon adenocarcinoma cell); experiment: as above; format: cell-based; details: Homo sapiens; 72 h, MTT, RKO
Experimental: as §5, §4, §6

Row | Structure (SMILES) | IC50 [1] | IC90 [1] | IC50 [2] | IC90 [2] | IC50 [3] | IC90 [3] | IC50 [4] | IC90 [4] | IC50 [5] | IC90 [5] | IC50 [6] | IC90 [6] | IC50 [7] | IC90 [7] | IC50 [8] | IC90 [8] | IC50 [9] | IC90 [9] | IC50 [10] | IC90 [10] | further results
1 | COc1ccc2cc1Oc1ccc(cc1)C[C@H]1c3cc(c(OC)cc3CCN1C)Oc1c(OC)c(OC)c(CN3CCCC3)c3c1[C@H](C2)N(C)CC3 [BS-TE-305] | 0.7 µg/mL (≈ 0.992 µM) | 1.44 µg/mL (≈ 2.04 µM) | 1.35 µg/mL (≈ 1.91 µM) | 4.96 µg/mL (≈ 7.03 µM) | 0.44 µg/mL (≈ 0.623 µM) | 7.2 µg/mL (≈ 10.2 µM) | 0.52 µg/mL (≈ 0.737 µM) | 3.11 µg/mL (≈ 4.41 µM) | 0.29 µg/mL (≈ 0.411 µM) | 2 µg/mL (≈ 2.83 µM) | 0.006 µg/mL (≈ 0.0085 µM) | 0.42 µg/mL (≈ 0.595 µM) | 1.1 µg/mL (≈ 1.56 µM) | 17 µg/mL (≈ 24 µM) | 0.74 µg/mL (≈ 1.05 µM) | 2.05 µg/mL (≈ 2.9 µM) | 3.72 µg/mL (≈ 5.27 µM) | 13.4 µg/mL (≈ 19 µM) | 1.56 µg/mL (≈ 2.21 µM) | 4.9 µg/mL (≈ 6.94 µM) | anti-PC-3 activity increase over tetrandrine ([10]; compared with tetrandrine): ~4 fold; IC50 [11]: 1 µg/mL (≈ 1.42 µM); IC90 [11]: 5.25 µg/mL (≈ 7.44 µM); anti-A549 activity increase over tetrandrine ([11]; compared with tetrandrine): ~3 fold; IC50 [12]: 1.44 µg/mL (≈ 2.04 µM); IC90 [12]: 6.24 µg/mL (≈ 8.84 µM); IC50 [13]: 1.28 µg/mL (≈ 1.81 µM); IC90 [13]: 2.3 µg/mL (≈ 3.26 µM); IC50 [14]: 1 µg/mL (≈ 1.42 µM); IC90 [14]: 10 µg/mL (≈ 14.2 µM); IC50 [15]: 0.66 µg/mL (≈ 0.935 µM); IC90 [15]: 1.65 µg/mL (≈ 2.34 µM)
2 | COc1ccc2cc1Oc1ccc(cc1)C[C@H]1c3cc(c(OC)cc3CCN1C)Oc1c(OC)c(OC)c(CN3CCN(CCO)CC3)c3c1[C@H](C2)N(C)CC3 [BS-TE-334] | 1.3 µg/mL (≈ 1.7 µM) | 2.4 µg/mL (≈ 3.14 µM) | 1.88 µg/mL (≈ 2.46 µM) | 7.85 µg/mL (≈ 10.3 µM) | 1.49 µg/mL (≈ 1.95 µM) | 5.99 µg/mL (≈ 7.83 µM) | 1.06 µg/mL (≈ 1.39 µM) | 3.64 µg/mL (≈ 4.76 µM) | > 16 µg/mL | > 16 µg/mL | 0.05 µg/mL (≈ 0.0654 µM) | 1.11 µg/mL (≈ 1.45 µM) | 2.35 µg/mL (≈ 3.07 µM) | 21.5 µg/mL (≈ 28.1 µM) | 0.84 µg/mL (≈ 1.1 µM) | 2.44 µg/mL (≈ 3.19 µM) | 3.99 µg/mL (≈ 5.22 µM) | 11 µg/mL (≈ 14.4 µM) | 3.35 µg/mL (≈ 4.38 µM) | 6.05 µg/mL (≈ 7.91 µM) | IC50 [11]: 4 µg/mL (≈ 5.23 µM); IC90 [11]: 14.6 µg/mL (≈ 19.1 µM); IC50 [12]: 3.09 µg/mL (≈ 4.04 µM); IC90 [12]: 8.39 µg/mL (≈ 11 µM); IC50 [13]: 2.55 µg/mL (≈ 3.33 µM); IC90 [13]: 4.38 µg/mL (≈ 5.73 µM); IC50 [14]: 2.22 µg/mL (≈ 2.9 µM); IC90 [14]: 10 µg/mL (≈ 13.1 µM); IC50 [15]: 0.82 µg/mL (≈ 1.07 µM); IC90 [15]: 2.04 µg/mL (≈ 2.67 µM)
3 | COc1ccc2cc1Oc1ccc(cc1)C[C@H]1c3cc(c(OC)cc3CCN1C)Oc1c(OC)c(OC)c(CN3CCC(O)CC3)c3c1[C@H](C2)N(C)CC3 [BS-TE-308] | 1.7 µg/mL (≈ 2.31 µM) | 4.68 µg/mL (≈ 6.36 µM) | 3.91 µg/mL (≈ 5.31 µM) | 12.7 µg/mL (≈ 17.3 µM) | 3.54 µg/mL (≈ 4.81 µM) | 12.4 µg/mL (≈ 16.8 µM) | 1.76 µg/mL (≈ 2.39 µM) | 8.69 µg/mL (≈ 11.8 µM) | 1.43 µg/mL (≈ 1.94 µM) | 6.61 µg/mL (≈ 8.98 µM) | 0.28 µg/mL (≈ 0.38 µM) | 0.76 µg/mL (≈ 1.03 µM) | 3.43 µg/mL (≈ 4.66 µM) | 27.4 µg/mL (≈ 37.3 µM) | 1.38 µg/mL (≈ 1.88 µM) | 4.84 µg/mL (≈ 6.58 µM) | 6.54 µg/mL (≈ 8.89 µM) | 14.7 µg/mL (≈ 19.9 µM) | 5.39 µg/mL (≈ 7.32 µM) | 8.99 µg/mL (≈ 12.2 µM) | IC50 [11]: 2.79 µg/mL (≈ 3.79 µM); IC90 [11]: 11.2 µg/mL (≈ 15.2 µM); IC50 [12]: 4.76 µg/mL (≈ 6.47 µM); IC90 [12]: 11.5 µg/mL (≈ 15.6 µM); IC50 [13]: 3.1 µg/mL (≈ 4.21 µM); IC90 [13]: 4.95 µg/mL (≈ 6.73 µM); IC50 [14]: 4.44 µg/mL (≈ 6.03 µM); IC90 [14]: 23 µg/mL (≈ 31.3 µM); IC50 [15]: 1.77 µg/mL (≈ 2.41 µM); IC90 [15]: 4.03 µg/mL (≈ 5.48 µM)
4 | COc1ccc2cc1Oc1ccc(cc1)C[C@H]1c3cc(c(OC)cc3CCN1C)Oc1c(OC)c(OC)c(CN3CCN(c4ccccc4)CC3)c3c1[C@H](C2)N(C)CC3 [BS-TE-343] | 1.62 µg/mL (≈ 2.03 µM) | 2.75 µg/mL (≈ 3.45 µM) | 1.9 µg/mL (≈ 2.38 µM) | 5.27 µg/mL (≈ 6.61 µM) | 0.68 µg/mL (≈ 0.853 µM) | 2.38 µg/mL (≈ 2.99 µM) | 2.24 µg/mL (≈ 2.81 µM) | 6.95 µg/mL (≈ 8.72 µM) | 1.18 µg/mL (≈ 1.48 µM) | 3.06 µg/mL (≈ 3.84 µM) | 0.05 µg/mL (≈ 0.0627 µM) | 0.7 µg/mL (≈ 0.878 µM) | 2.09 µg/mL (≈ 2.62 µM) | 8.09 µg/mL (≈ 10.2 µM) | 1.15 µg/mL (≈ 1.44 µM) | 2.47 µg/mL (≈ 3.1 µM) | 2.84 µg/mL (≈ 3.56 µM) | 4.84 µg/mL (≈ 6.07 µM) | 2.72 µg/mL (≈ 3.41 µM) | 4.28 µg/mL (≈ 5.37 µM) | IC50 [11]: 3.54 µg/mL (≈ 4.44 µM); IC90 [11]: 12 µg/mL (≈ 15 µM); IC50 [12]: 6.96 µg/mL (≈ 8.73 µM); IC90 [12]: 8.17 µg/mL (≈ 10.3 µM); IC50 [13]: 2.14 µg/mL (≈ 2.69 µM); IC90 [13]: 4.85 µg/mL (≈ 6.09 µM); IC50 [14]: 1.1 µg/mL (≈ 1.38 µM); IC90 [14]: 2.88 µg/mL (≈ 3.61 µM); IC50 [15]: 2.25 µg/mL (≈ 2.82 µM); IC90 [15]: 3.24 µg/mL (≈ 4.07 µM)
